The target of the test is T1, human URAT1 (Homo sapiens, UniProt Q96S37).
T1 construct: The full-length hURAT1 cDNA was obtained from the vector pCMV6-XL5 and subcloned into the expression vector pCMV6-Neo
T1 sequence (Q96S37 1-553): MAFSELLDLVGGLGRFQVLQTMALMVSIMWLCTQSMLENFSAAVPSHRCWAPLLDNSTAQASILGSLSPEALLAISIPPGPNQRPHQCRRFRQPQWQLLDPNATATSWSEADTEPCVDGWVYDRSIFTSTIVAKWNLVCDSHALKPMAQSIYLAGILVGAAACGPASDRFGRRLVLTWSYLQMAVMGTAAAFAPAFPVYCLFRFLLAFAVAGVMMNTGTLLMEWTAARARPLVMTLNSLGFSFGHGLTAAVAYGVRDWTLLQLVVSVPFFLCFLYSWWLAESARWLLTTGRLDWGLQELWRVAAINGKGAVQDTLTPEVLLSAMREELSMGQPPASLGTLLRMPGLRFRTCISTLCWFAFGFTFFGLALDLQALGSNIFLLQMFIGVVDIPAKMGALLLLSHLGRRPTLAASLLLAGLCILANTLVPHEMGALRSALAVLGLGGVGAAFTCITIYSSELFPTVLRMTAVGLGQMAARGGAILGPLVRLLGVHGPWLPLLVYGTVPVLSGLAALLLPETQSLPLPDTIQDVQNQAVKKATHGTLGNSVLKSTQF
In words: URAT1 inhibition assay: [8-14C] urate uptake in hURAT1-HEK cells. Format: cell-based. The method, then: An in vitro URAT1 assay is useful for identifying compounds with potential activity in lowering serum uric acid. A suitable assay involves transfection of cells (e.g. human embryonic kidney cells; “HEK”) with a vector encoding human URAT1, followed by determination of the ability of transfected cells to take up radiolabeled uric acid. The activity of compounds as URAT1 inhibitors is evaluated by their ability to block uric acid uptake by transfected cells.
Plasmid vector pCMV6-XL5 containing hURAT1 cDNA (Cat. No. SC125624) and the expression vector pCMV6-Neo (Cat. No.pCMVNEO) were obtained from OriGene Technologies, Inc. The full-length hURAT1 cDNA was obtained from the vector pCMV6-XL5 and subcloned into the expression vector pCMV6-Neo to create the hURAT1 expression plasmid pCMV6-hURAT1. The sequences were verified by automatic DNA sequencing.
Human embryonic kidney 293 (HEK) cells (ATTCC, Cat No. CRL-1573) were cultured in EMEM supplemented with 10% FBS and 2 mM L-glutamine and incubated at 37° C. and 5% CO2. For transfection experiments, cells were plated on 60 mm dishes in 1 ml media per dish. After an 18-24 hour incubation, cells were transfected with plasmid pCMV6-hURAT1 or the expression vector pCMV6-Neo, using the Lipofectin trasfection agent following the manufacturer's instructions (Invitrogen, Cat.No. 18292). After transfection cells were grown in EMEM media for 72 hours and then by adding lmg/ml Geneticin (GIBCO, Cat. No 10131) stable transfectants were selected. Stable transfectants expressing hURAT1 (herein after referred as hURAT1-HEK cells) or cells having only the expression vector pCMV6-Neo (herein after referred as mock-HEK cells) were verified using reverse transcription polymerase chain reaction (RT-PCR) methods.
hURAT1-HEK cells and mock-HEK cells were plated in poly-D-Lysine Cell culture 24 well plates (Becton Dickinson, Cat. No. 354414) at a concentration of 3×10^5 in EMEM medium and incubated overnight. Reaction solutions containing the [8-^14C] urate (55 mCi/mmol) at a final concentration of 50 μM were prepared with or without test compounds in Hanks' balanced salt solution (HBSS) containing 125 mM sodium gluconate, 4.8 mM potassium gluconate, 1.3 mM calcium, 5.6 mM glucose, 1.2 mM magnesium sulfate, 1.2 mM KH2PO4 and 25 mM HEPES (pH7.4). Before the uptake assay started, the culture medium was removed and the cells were incubated for 5 min in 0.6 ml of HBSS. After that HBSS was removed, the prepared reaction solutions were added into each well and incubated for 5 min at room temperature. Then the reaction solution was removed, cells were washed twice with 0.6 ml of cold HBSS and lysed with 0.2 ml of 0.1 M NaOH for 20 min. The cell lysates were transferred into the scintillation vials containing 1 ml of scintillation fluid (Opti Phase SuperMIX, PerkinElmer, Cat No. 1200-439) and the radioactivity was counted in the Microbeta counter (1450, Wallac Jet, PerkinElmer). Test compounds were dissolved in DMSO and the same concentration of DMSO was added into the wells of mock-HEK cells and the hURAT1-HEK cells that didn't contain test compounds. For each test compound, the uptake assay was performed 2 times and carried out in triplicate. Urate uptake of the cells for each test condition was presented as the average percent inhibition in comparison to the DMSO control. The radioactivity values obtained for the wells that contained DMSO were taken as 100% uptake of the cells. The observed concentration-percent inhibition data were fitted to a sigmoidal concentration-effect model, where: % Inhibition=(100*Conc^Slope)/(IC50^Slope+Conc^Slope)
IC50 and slope estimates with their 95% confidence limits were determined by a non-linear, least-squares regression analysis using the Data Analysis Toolbox™ (MDL Information Systems, San Leandro, Calif., USA). […]

Where [1] appears, read: 10 μM test compound, 14C urate uptake in hURAT1-HEK cells, vs DMSO control, read-out: % of inhibition (at 10 μM).

Like-named read-outs stand apart in the source and are kept apart here.

A word on the inhibition: it is the change of the read-out against control, counted positive when it falls.

`Cc1ccc(C(=O)O)cc1OCc1c(C)cccc1C` [FA, 3-(2,6-dimethylbenzyloxy)-4-methylbenzoic acid]: the inhibition at 10 µM under setting [1] was 83.2%.

`Cc1cccc(C)c1COc1cc(C(=O)O)ccc1[N+](=O)[O-]` [FB, 3-(2,6-dimethylbenzyloxy)-4-nitrobenzoic acid]: the inhibition at 10 µM under setting [1] is 81%.

Take `Cc1ccc(CC(=O)O)cc1OCc1c(C)cccc1C` [EH, 2-(3-(2,6-Dimethylbenzyloxy)-4-methylphenyl)acetic acid, reference compound]: under setting [1], the inhibition at 10 µM turned out to be 95.6%.

For `COc1ccc(C(=O)O)cc1OCc1c(C)cccc1C` [Compound FC, 3-(2,6-dimethylbenzyloxy)-4-methoxybenzoic acid], the inhibition at 10 µM under setting [1] amounted to 89.2% and the inhibition at 10 µM (concentration 10 μM, urate uptake in hURAT1-HEK cells (Table 2), read-out: % of inhibition Avg.) stood at 93.3%. In addition, the inhibition at 0.05 µM (concentration 0.05 μM, urate uptake in hURAT1-HEK cells) is 7.08%. The inhibition at 0.1 µM (concentration 0.1 μM, urate uptake in hURAT1-HEK cells) is -1.08%. The inhibition at 0.5 µM (concentration 0.5 μM, urate uptake in hURAT1-HEK cells) amounted to 34.6%. Besides, where the note is “concentration 1 μM, urate uptake in hURAT1-HEK cells”, the inhibition at 1 µM came to 49.8%. Besides, the inhibition at 100 µM (concentration 100 μM, urate uptake in hURAT1-HEK cells) is 97.8%.

For the molecule `Cc1cccc(C)c1COc1cc(C(=O)O)ccc1N` [FE, 4-amino-3-(2,6-dimethylbenzyloxy)benzoic acid], under setting [1], the inhibition at 10 µM was 10%.

As for `Cc1cccc(C)c1COc1cc(C(=O)O)ccc1F` [FD, 3-(2,6-dimethylbenzyloxy)-4-fluorobenzoic acid], the inhibition at 10 µM under setting [1] is 68.1%.

The values above are taken from US10085957B2, “Benzoic acid compounds for reducing uric acid” (Wellstat Therapeutics Corporation, priority 2010, dated 2018).
